Data as given in publication PMC8352984, “Estrogen mediates sex differences in preoptic neuropeptide and pituitary hormone production in medaka” (Communications Biology, 2021).

Key:
Format in all cases: cell-based, medaka (Oryzias latipes)
[1] = system: follicle-stimulating hormone β subunit (fshb) gene expression; assay: Ex vivo pituitary organ culture, real-time PCR of fshb;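 on fshb expression (Fig. 8, fshb): relative expression with female control samples set to 1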
Text: (§1) Fig. 8 Pacap and Vip have pleiotropic effects on the expression of anterior pituitary hormones. The effects of Pacap and Vip on gene expression levels of follicle-stimulating hormone β subunit (fshb), luteinizing hormone β subunit (lhb), thyroid-stimulating hormone β subunit (tshb), growth hormone (gh), somatolactin (sl), prolactin (prl), and pro-opiomelanocortin (pomc) were investigated by using male and female pituitaries cultured ex vivo (n = 6 per group, except male pituitary supplemented with Vip, where n = 5). Data were expressed as means with error bars representing standard error of the mean. Statistical differences were assessed by Dunnett’s post-hoc test. *p < 0.05; **p < 0.01; ***p < 0.001.
(§2) The pituitaries from five male or female fish were pooled for each sample and cultured ex vivo in Leibovitz’s L-15 medium supplemented with 5% charcoal-stripped fetal bovine serum as described elsewhere. The medium was further supplemented with 10^−5 M medaka Pacap or Vip, or vehicle alone. After 24 h of culture at 25 °C, the pituitaries were processed for total RNA extraction and cDNA synthesis by using the RNeasy Plus Micro Kit (Qiagen) and SuperScript VILO cDNA Synthesis Kit (Thermo Fisher Scientific), respectively. Real-time PCR was performed on the LightCycler 480 System II using LightCycler 480 SYBR Green I Master (Roche Diagnostics). The cycle conditions were: 95 °C for 5 min followed by 45 cycles of 95 °C for 10 sec, 60 °C for 10 sec and 72 °C for 10 sec. Melting curve analysis was performed as described above. Data were normalized to the geometric mean of three reference genes, actb, gapdh (encoding glyceraldehyde-3-phosphate dehydrogenase; National BioResource Project (NBRP) Medaka clone ID olbrno9_f15) and rpl13 (encoding ribosomal protein L13; NBRP Medaka clone ID olovano51_b24), according to Vandesompele et al.[63]. The primers used for real-time PCR are listed in Supplementary Table 3.

[2] = system: thyroid-stimulating hormone β subunit (tshb) gene expression; assay: Ex vivo pituitary organ culture, real-time PCR of tshb; conditions: for tshb expression (in words): 10^-5 M, 24 h, 25 °C, vs vehicle
Text: as §1, §2

[3] = system: growth hormone (gh) gene expression; assay: Ex vivo pituitary organ culture, real-time PCR of gh; conditions: for gh expression (in words): 10^-5 M, 24 h, 25 °C, vs vehicle
Text: as §1, §2

[4] = system: somatolactin (sl) gene expression; assay: Ex vivo pituitary organ culture, real-time PCR of sl; conditions: for sl expression (in words): 10^-5 M, 24 h, 25 °C, vs vehicle
Text: as §1, §2

[5] = system: prolactin (prl) gene expression; assay: Ex vivo pituitary organ culture, real-time PCR of prl; conditions: for prl expression (in words): 10^-5 M, 24 h, 25 °C, vs vehicle
Text: as §1, §2

[6] = system: pro-opiomelanocortin (pomc) gene expression; assay: Ex vivo pituitary organ culture, real-time PCR of pomc;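 on pomc expression (Fig. 8, pomc): relative expression with female control samples set to 1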
Text: as §1, §2

vasoactive intestinal peptide [Vip]
fshb expression (in words) ([1]; female pituitaries, 10^-5 M, 24 h, 25 °C, vs vehicle): significantly reduced
fshb expression (Fig. 8, fshb) ([1]; female, replicate 1): 0.539
fshb expression (Fig. 8, fshb) ([1]; female, replicate 2): 0.835
fshb expression (Fig. 8, fshb) ([1]; female, replicate 3): 0.607
fshb expression (Fig. 8, fshb) ([1]; female, replicate 4): 0.498
fshb expression (Fig. 8, fshb) ([1]; female, replicate 5): 0.542
fshb expression (Fig. 8, fshb) ([1]; female, replicate 6): 0.944
fshb expression (Fig. 8, fshb) ([1]; male, replicate 1): 0.537
fshb expression (Fig. 8, fshb) ([1]; male, replicate 2): 0.688
fshb expression (Fig. 8, fshb) ([1]; male, replicate 3): 0.453
fshb expression (Fig. 8, fshb) ([1]; male, replicate 5): 0.338
fshb expression (Fig. 8, fshb) ([1]; male, replicate 6): 0.319
tshb expression (in words) ([2]; female pituitaries): no significant effects
tshb expression (Fig. 8, tshb) ([2]; female, replicate 1): 1.106
tshb expression (Fig. 8, tshb) ([2]; female, replicate 2): 0.773
tshb expression (Fig. 8, tshb) ([2]; female, replicate 3): 0.549
tshb expression (Fig. 8, tshb) ([2]; female, replicate 4): 1.002
tshb expression (Fig. 8, tshb) ([2]; female, replicate 5): 0.461
tshb expression (Fig. 8, tshb) ([2]; female, replicate 6): 0.560
tshb expression (in words) ([2]; male pituitaries): no significant effects
tshb expression (Fig. 8, tshb) ([2]; male, replicate 1): 0.809
tshb expression (Fig. 8, tshb) ([2]; male, replicate 2): 1.442
tshb expression (Fig. 8, tshb) ([2]; male, replicate 3): 0.793
tshb expression (Fig. 8, tshb) ([2]; male, replicate 5): 0.484
tshb expression (Fig. 8, tshb) ([2]; male, replicate 6): 0.743
gh expression (in words) ([3]; female pituitaries): no significant effects
gh expression (Fig. 8, gh) ([3]; female, replicate 1): 0.831
gh expression (Fig. 8, gh) ([3]; female, replicate 2): 0.891
gh expression (Fig. 8, gh) ([3]; female, replicate 3): 0.819
gh expression (Fig. 8, gh) ([3]; female, replicate 4): 0.622
gh expression (Fig. 8, gh) ([3]; female, replicate 5): 0.476
gh expression (Fig. 8, gh) ([3]; female, replicate 6): 1.314
gh expression (in words) ([3]; male pituitaries): no significant effects
gh expression (Fig. 8, gh) ([3]; male, replicate 1): 0.673
gh expression (Fig. 8, gh) ([3]; male, replicate 2): 0.774
gh expression (Fig. 8, gh) ([3]; male, replicate 3): 0.572
gh expression (Fig. 8, gh) ([3]; male, replicate 5): 0.496
gh expression (Fig. 8, gh) ([3]; male, replicate 6): 0.481
sl expression (in words) ([4]; female pituitaries): substantially increased
sl expression (Fig. 8, sl) ([4]; female, replicate 1): 2.764
sl expression (Fig. 8, sl) ([4]; female, replicate 2): 2.848
sl expression (Fig. 8, sl) ([4]; female, replicate 3): 3.893
sl expression (Fig. 8, sl) ([4]; female, replicate 4): 3.276
sl expression (Fig. 8, sl) ([4]; female, replicate 5): 2.230
sl expression (Fig. 8, sl) ([4]; female, replicate 6): 4.010
sl expression (in words) ([4]; male pituitaries): substantially increased
sl expression (Fig. 8, sl) ([4]; male, replicate 1): 2.507
sl expression (Fig. 8, sl) ([4]; male, replicate 2): 2.455
sl expression (Fig. 8, sl) ([4]; male, replicate 3): 2.960
sl expression (Fig. 8, sl) ([4]; male, replicate 5): 2.682
sl expression (Fig. 8, sl) ([4]; male, replicate 6): 1.395
prl expression (in words) ([5]; female pituitaries): substantially increased
prl expression (Fig. 8, prl) ([5]; female, replicate 1): 4.014
prl expression (Fig. 8, prl) ([5]; female, replicate 2): 5.400
prl expression (Fig. 8, prl) ([5]; female, replicate 3): 2.330
prl expression (Fig. 8, prl) ([5]; female, replicate 4): 5.283
prl expression (Fig. 8, prl) ([5]; female, replicate 5): 3.539
prl expression (Fig. 8, prl) ([5]; female, replicate 6): 6.475
prl expression (in words) ([5]; male pituitaries): substantially increased
prl expression (Fig. 8, prl) ([5]; male, replicate 1): 3.340
prl expression (Fig. 8, prl) ([5]; male, replicate 2): 4.481
prl expression (Fig. 8, prl) ([5]; male, replicate 3): 3.982
prl expression (Fig. 8, prl) ([5]; male, replicate 5): 3.314
prl expression (Fig. 8, prl) ([5]; male, replicate 6): 4.421
pomc expression (Fig. 8, pomc) ([6]; female, replicate 1): 1.053
pomc expression (Fig. 8, pomc) ([6]; female, replicate 2): 1.048
pomc expression (Fig. 8, pomc) ([6]; female, replicate 3): 0.787
pomc expression (Fig. 8, pomc) ([6]; female, replicate 4): 1.201
pomc expression (Fig. 8, pomc) ([6]; female, replicate 5): 1.189
pomc expression (Fig. 8, pomc) ([6]; female, replicate 6): 1.854
pomc expression (in words) ([6]; male pituitaries, 10^-5 M, 24 h, 25 °C, vs vehicle): no significant effect
pomc expression (Fig. 8, pomc) ([6]; male, replicate 1): 3.570
pomc expression (Fig. 8, pomc) ([6]; male, replicate 2): 3.612
pomc expression (Fig. 8, pomc) ([6]; male, replicate 3): 5.174
pomc expression (Fig. 8, pomc) ([6]; male, replicate 5): 6.158
pomc expression (Fig. 8, pomc) ([6]; male, replicate 6): 3.870
